In brackets after ≈: the same amount, converted by molar mass. Read-outs that look alike come from different tables or passages of the source.
Test: Solubility of agrochemical active ingredient in oil comprising ionic liquid
Assay type: physicochemical
Settings: for solubility: 21 °C, thermodynamic from solid
Text: Alternatively, the oil, which comprised the ionic liquid, was saturated with the active ingredient and the soluble fraction of active ingredient was quantified by means of HPLC. In the first line of the tables, in each case the weight ratios of oil to IL are given.

Solubility of fluxapyroxad with Agnique AMD 12 ® (N,N-dimethyldodecanamide, lauryl N,N-dimethylamide) as oil (21° C., Oil/IL 20/80 weight ratio, IL N-butyl-N′-methylimidazolium acetate): 43.1 mg/mL | Solubility of fluxapyroxad with Agnique AMD 12 ® (N,N-dimethyldodecanamide, lauryl N,N-dimethylamide) as oil (21° C., Oil/IL 20/80 weight ratio, IL N-ethyl-N′-methylimidazolium acetate): 39.5 mg/mL | Solubility of fluxapyroxad with Agnique AMD 12 ® (N,N-dimethyldodecanamide, lauryl N,N-dimethylamide) as oil (21° C., Oil/IL 20/80 weight ratio, IL N-ethyl-N′-methylimidazolium isononanoate): 38.4 mg/mL | Solubility of fluxapyroxad with Agnique AMD 12 ® (N,N-dimethyldodecanamide, lauryl N,N-dimethylamide) as oil (21° C., Oil/IL 20/80 weight ratio, IL Tetrabutylammonium [2-(2-methoxyethoxy)ethoxy]acetate): 37.5 mg/mL | Solubility of fluxapyroxad with Agnique AMD 12 ® (N,N-dimethyldodecanamide, lauryl N,N-dimethylamide) as oil (21° C., Oil/IL 60/40 weight ratio, IL N-butyl-N′-methylimidazolium acetate): 55.9 mg/mL | Solubility of fluxapyroxad with Agnique AMD 12 ® (N,N-dimethyldodecanamide, lauryl N,N-dimethylamide) as oil (21° C., Oil/IL 60/40 weight ratio, IL N-ethyl-N′-methylimidazolium acetate): 40.4 mg/mL | Solubility of fluxapyroxad with Agnique AMD 12 ® (N,N-dimethyldodecanamide, lauryl N,N-dimethylamide) as oil (21° C., Oil/IL 60/40 weight ratio, IL N-ethyl-N′-methylimidazolium isononanoate): 48.1 mg/mL | Solubility of fluxapyroxad with Agnique AMD 12 ® (N,N-dimethyldodecanamide, lauryl N,N-dimethylamide) as oil (21° C., Oil/IL 60/40 weight ratio, IL Tetrabutylammonium [2-(2-methoxyethoxy)ethoxy]acetate): 33.1 mg/mL | Solubility of fluxapyroxad with Agnique AMD 12 ® (N,N-dimethyldodecanamide, lauryl N,N-dimethylamide) as oil (21° C., Oil/IL 90/10 weight ratio, IL N-ethyl-N′-methylimidazolium acetate): 38.2 mg/mL | Solubility of fluxapyroxad with Agnique AMD 12 ® (N,N-dimethyldodecanamide, lauryl N,N-dimethylamide) as oil (21° C., Oil/IL 90/10 weight ratio, IL Tetrabutylammonium [2-(2-methoxyethoxy)ethoxy]acetate): 29.7 mg/mL | solubility (oil or lipid, 21° C., Oil/IL 20/80 weight ratio, IL N-ethyl-N′-ethylimidazolium propionate, read-out: Solubility of fluxapyroxad with Solvesso ® 200 ND as oil): 39.4 mg/mL | solubility (oil or lipid, 21° C., Oil/IL 20/80 weight ratio, IL N-ethyl-N′-methylimidazolium isononanoate, read-out: Solubility of fluxapyroxad with Solvesso ® 200 ND as oil): 28.6 mg/mL | solubility (oil or lipid, 21° C., Oil/IL 60/40 weight ratio, IL N-ethyl-N′-ethylimidazolium propionate, read-out: Solubility of fluxapyroxad with Solvesso ® 200 ND as oil): 50.5 mg/mL | solubility (oil or lipid, 21° C., Oil/IL 60/40 weight ratio, IL N-ethyl-N′-methylimidazolium isononanoate, read-out: Solubility of fluxapyroxad with Solvesso ® 200 ND as oil): 42.9 mg/mL | solubility (oil or lipid, 21° C., Oil/IL 90/10 weight ratio, IL N-ethyl-N′-ethylimidazolium propionate, read-out: Solubility of fluxapyroxad with Solvesso ® 200 ND as oil): 21.3 mg/mL | solubility (oil or lipid, 21° C., Oil/IL 90/10 weight ratio, IL N-ethyl-N′-methylimidazolium isononanoate, read-out: Solubility of fluxapyroxad with Solvesso ® 200 ND as oil): 15.3 mg/mL | solubility (oil or lipid, 21° C., Oil/IL 90/10 weight ratio, IL Tetrabutylammonium [2-(2-methoxyethoxy)ethoxy]acetate, read-out: Solubility of fluxapyroxad with Solvesso ® 200 ND as oil): 18.4 mg/mL | solubility (oil or lipid, Solubility of fluxapyroxad with Agnique AMD 12 ® (N,N-dimethyldodecanamide, lauryl N,N-dimethylamide) as oil): 25.9 mg/mL (≈ 67.9 mM) | solubility (organic solvent or mixture, 21° C., 100 IL (no oil), IL N-ethyl-N′-methylimidazolium isononanoate, read-out: Solubility of fluxapyroxad with Cetiol ® B as oil): 9.5 mg/mL (≈ 24.9 mM) | solubility (organic solvent or mixture, 21° C., 100 IL (no oil), IL N-ethyl-N′-methylimidazolium isononanoate, read-out: Solubility of fluxapyroxad with Solvesso ® 200 ND as oil): 9.5 mg/mL (≈ 24.9 mM) | solubility (organic solvent or mixture, 21° C., 100 IL (no oil), IL Tetrabutylammonium [2-(2-methoxyethoxy)ethoxy]acetate, read-out: Solubility of fluxapyroxad with Solvesso ® 200 ND as oil): 9.5 mg/mL (≈ 24.9 mM) | solubility (organic solvent or mixture, Solubility of fluxapyroxad with Agnique AMD 12 ® (N,N-dimethyldodecanamide, lauryl N,N-dimethylamide) as oil): 5 mg/mL (≈ 13.1 mM) | solubility (organic solvent or mixture, Solubility of fluxapyroxad with Cetiol ® B as oil): 5 mg/mL (≈ 13.1 mM) | solubility (organic solvent or mixture, Solubility of fluxapyroxad with Solvesso ® 200 ND as oil): 5 mg/mL (≈ 13.1 mM) | solubility (Cetiol B / N-ethyl-N′-methylimidazolium isononanoate mixture, oil or lipid, 21° C., Oil/IL 20/80 weight ratio, IL N-ethyl-N′-methylimidazolium isononanoate, read-out: Solubility of fluxapyroxad with Cetiol ® B as oil): 48.7 mg/mL | solubility (Cetiol B / N-ethyl-N′-methylimidazolium isononanoate mixture, oil or lipid, 21° C., Oil/IL 60/40 weight ratio, IL N-ethyl-N′-methylimidazolium isononanoate, read-out: Solubility of fluxapyroxad with Cetiol ® B as oil): 46.7 mg/mL | solubility (Cetiol B / N-ethyl-N′-methylimidazolium isononanoate mixture, oil or lipid, 21° C., Oil/IL 90/10 weight ratio, IL N-ethyl-N′-methylimidazolium isononanoate, read-out: Solubility of fluxapyroxad with Cetiol ® B as oil): 20.7 mg/mL | solubility (Cetiol B / cholinium octanoate mixture, oil or lipid, 21° C., Oil/IL 20/80 weight ratio, IL Cholinium octanoate, read-out: Solubility of fluxapyroxad with Cetiol ® B as oil): 34.2 mg/mL | solubility (Cetiol B oil comprising ionic liquid, oil or lipid, 21° C., Oil/IL 20/80 weight ratio, IL N-butyl-N′-methylimidazolium acetate, read-out: Solubility of fluxapyroxad with Cetiol ® B as oil): 54.9 mg/mL | solubility (Cetiol B oil comprising ionic liquid, oil or lipid, 21° C., Oil/IL 20/80 weight ratio, IL N-butyl-N′-methylimidazolium dimethylphosphate, read-out: Solubility of fluxapyroxad with Cetiol ® B as oil): 44.1 mg/mL | solubility (Cetiol B oil comprising ionic liquid, oil or lipid, 21° C., Oil/IL 20/80 weight ratio, IL N-ethyl-N′-ethylimidazolium propionate, read-out: Solubility of fluxapyroxad with Cetiol ® B as oil): 60.2 mg/mL | solubility (Cetiol B oil comprising ionic liquid, oil or lipid, 21° C., Oil/IL 20/80 weight ratio, IL N-ethyl-N′-methylimidazolium acetate, read-out: Solubility of fluxapyroxad with Cetiol ® B as oil): 56.2 mg/mL | solubility (Cetiol B oil comprising ionic liquid, oil or lipid, 21° C., Oil/IL 20/80 weight ratio, IL N-ethyl-N′-methylimidazolium dibutylphosphate, read-out: Solubility of fluxapyroxad with Cetiol ® B as oil): 16.8 mg/mL | solubility (Cetiol B oil comprising ionic liquid, oil or lipid, 21° C., Oil/IL 20/80 weight ratio, IL N-ethyl-N′-methylimidazolium heptanoate, read-out: Solubility of fluxapyroxad with Cetiol ® B as oil): 28.4 mg/mL | solubility (Cetiol B oil comprising ionic liquid, oil or lipid, 21° C., Oil/IL 20/80 weight ratio, IL N-ethyl-N′-methylimidazolium octanoate, read-out: Solubility of fluxapyroxad with Cetiol ® B as oil): 25.7 mg/mL | solubility (Cetiol B oil comprising ionic liquid, oil or lipid, 21° C., Oil/IL 20/80 weight ratio, IL N-propyl-N′-propylimidazolium acetate, read-out: Solubility of fluxapyroxad with Cetiol ® B as oil): 59.2 mg/mL | solubility (Cetiol B oil comprising ionic liquid, oil or lipid, 21° C., Oil/IL 20/80 weight ratio, IL Tetrabutylammonium [2-(2-methoxyethoxy)ethoxy]acetate, read-out: Solubility of fluxapyroxad with Cetiol ® B as oil): 38.3 mg/mL | solubility (Cetiol B oil comprising ionic liquid, oil or lipid, 21° C., Oil/IL 60/40 weight ratio, IL Cholinium octanoate, read-out: Solubility of fluxapyroxad with Cetiol ® B as oil): 33.6 mg/mL | solubility (Cetiol B oil comprising ionic liquid, oil or lipid, 21° C., Oil/IL 60/40 weight ratio, IL N-butyl-N′-methylimidazolium acetate, read-out: Solubility of fluxapyroxad with Cetiol ® B as oil): 50.6 mg/mL
Compound: Cn1cc(C(=O)Nc2ccccc2-c2cc(F)c(F)c(F)c2)c(C(F)F)n1 [fluxapyroxad, 3-(difluoromethyl)-1-methyl-N-(3′,4′,5′-trifluorobiphenyl-2-yl)pyrazole-4-carboxamide]

— patent US9949475B2, “Composition comprising active ingredient, oil and ionic liquid” (priority 2011, dated 2018)
